The source of these data is article PMC12123601, “Light-Induced, Lysine-Targeting Irreversible Covalent Inhibition of the Human Oxygen Sensing Hydroxylase Factor Inhibiting HIF (FIH)” (Journal of the American Chemical Society, 2025).

The target of one assay is T1, FIH^WT (Homo sapiens, UniProt Q9NWT6).
T1 construct: pET28a vectors encoding for full-length FIH with an N-terminal His6 tag; His6 (N); host or cells: Escherichia coli BL21
The experiment in a line: Affinity-based fluorescence polarization (FP) assay with FIH WT, without and with 365 nm irradiation. Conditions: read-out: Binding affinity to FIH^WT: Ki. An excerpt:
We also performed a reported affinity-based fluorescence polarization (FP) assay (Figure S6) , under light activation to measure the binding affinity of NBA-ZG-2291 to FIH (Figure A). […] These observations are consistent with the intact protein MS analyzes. We also evaluated the binding affinities of two negative controls to FIH, which were designed not to covalently react with Lys106.
(§1) 4 (A) Light-induced click conjugation between NBA-ZG-2291 and FIH protein. (B) Light-induced binding affinity of NBA-ZG-2291 to FIH^ WT . (C) Light-induced binding affinity of NBA-ZG-2291 to FIH^ K106A . […] TEXT PRINTED IN THE PICTURE: (B) NBA-ZG-2291: Binding affinity to FIH^WT: Ki (nM): 414 ± 14 (Irradtion time (min): 0); Binding affinity to FIH^WT: Ki (nM): 74.1 ± 1.6 (Irradtion time (min): 15); Binding affinity to FIH^WT: Ki (nM): 46.7 ± 1.4 (Irradtion time (min): 30); Binding affinity to FIH^WT: Ki (nM): 33.2 ± 0.6 (Irradtion time (min): 60); Binding affinity to FIH^WT: Ki (nM): 30.2 ± 2.0 (Irradtion time (min): 90); Binding affinity to FIH^WT: Ki (nM): 32.1 ± 0.7 (Irradtion time (min): 120) | (B) Neg-1: Binding affinity to FIH^WT: Ki (nM): 423 ± 7 (Irradtion time (min): 0); Binding affinity to FIH^WT: Ki (nM): 408 ± 30 (Irradtion time (min): 15); Binding affinity to FIH^WT: Ki (nM): 459 ± 32 (Irradtion time (min): 30); Binding affinity to FIH^WT: Ki (nM): 427 ± 17 (Irradtion time (min): 60); Binding affinity to FIH^WT: Ki (nM): 396 ± 29 (Irradtion time (min): 90); Binding affinity to FIH^WT: Ki (nM): 428 ± 15 (Irradtion time (min): 120) | (B) Neg-2: Binding affinity to FIH^WT: Ki (nM): 742 ± 65 (Irradtion time (min): 0); Binding affinity to FIH^WT: Ki (nM): 799 ± 69 (Irradtion time (min): 15); Binding affinity to FIH^WT: Ki (nM): 758 ± 13 (Irradtion time (min): 30); Binding affinity to FIH^WT: Ki (nM): 744 ± 30 (Irradtion time (min): 60); Binding affinity to FIH^WT: Ki (nM): 788 ± 36 (Irradtion time (min): 90); Binding affinity to FIH^WT: Ki (nM): 786 ± 35 (Irradtion time (min): 120) | (C) NBA-ZG-2291: Binding affinity to FIH^K106A: Ki (nM): 442 ± 12 (Irradtion time (min): 0); Binding affinity to FIH^K106A: Ki (nM): 427 ± 22 (Irradtion time (min): 15); Binding affinity to FIH^K106A: Ki (nM): 426 ± 7 (Irradtion time (min): 30); Binding affinity to FIH^K106A: Ki (nM): 420 ± 11 (Irradtion time (min): 60); Binding affinity to FIH^K106A: Ki (nM): 418 ± 5 (Irradtion time (min): 90); Binding affinity to FIH^K106A: Ki (nM): 424 ± 12 (Irradtion time (min): 120) | (C) Neg-1: Binding affinity to FIH^K106A: Ki (nM): 271 ± 14 (Irradtion time (min): 0); Binding affinity to FIH^K106A: Ki (nM): 275 ± 15 (Irradtion time (min): 15); Binding affinity to FIH^K106A: Ki (nM): 268 ± 25 (Irradtion time (min): 30); Binding affinity to FIH^K106A: Ki (nM): 266 ± 22 (Irradtion time (min): 60); Binding affinity to FIH^K106A: Ki (nM): 264 ± 41 (Irradtion time (min): 90); Binding affinity to FIH^K106A: Ki (nM): 270 ± 3 (Irradtion time (min): 120) | (C) Neg-2: Binding affinity to FIH^K106A: Ki (nM): 567 ± 37 (Irradtion time (min): 0); Binding affinity to FIH^K106A: Ki (nM): 548 ± 61 (Irradtion time (min): 15); Binding affinity to FIH^K106A: Ki (nM): 521 ± 50 (Irradtion time (min): 30); Binding affinity to FIH^K106A: Ki (nM): 627 ± 17 (Irradtion time (min): 60); Binding affinity to FIH^K106A: Ki (nM): 565 ± 10 (Irradtion time (min): 90); Binding affinity to FIH^K106A: Ki (nM): 552 ± 38 (Irradtion time (min): 120) […]
(§2) 3. Experimental procedures
3.1 Fluorescence polarization (FP) assays1 with FIHWT and FIHK106A pET28a vectors encoding for full-length FIH with an N-terminal His6 tag or for FIH (K106A) with an N-terminal His6 tag were purchased from Nanjing Zoonbio Biotechnology. Both the FIHWT and FIHK106A protein were expressed from the respective plasmid in Escherichia coli BL21 at 20 °C for 16 h. E. coli cells were lysed and the lysate were clarified by centrifugation. His6- […]

The target in another assay is T2, FIH^K106A (Homo sapiens, UniProt Q9NWT6, K106A).
T2 construct: encoding for full-length FIH with an N-terminal His6 tag or for FIH (K106A) with an N-terminal His6 tag; His6 (N); host or cells: Escherichia coli BL21
The experiment in a line: Affinity-based fluorescence polarization (FP) assay with the FIH K106A variant, without and with irradiation. The conditions noted are these: read-out: Binding affinity to FIH^K106A: Ki. It is filed as binding.
Description: as §1
To further verify the covalent binding between NBA-ZG-2291 and Lys106, the FIH^ K106A variant was produced and purified.
as §2
3.1 Fluorescence polarization (FP) assays1 with FIHWT and FIHK106A pET28a vectors encoding for full-length FIH with an N-terminal His6 tag or for FIH (K106A) with an N-terminal His6 tag were purchased from Nanjing Zoonbio Biotechnology. Both the FIHWT and FIHK106A protein were expressed from the respective plasmid in Escherichia coli BL21 at 20 °C for 16 h. E. coli cells were lysed and the lysate were clarified by centrifugation. His6-tagged FIHWT or FIHK106A was purified on a HisTrap affinity column (GE Healthcare) by elution with an imidazole gradient. The final purified proteins were stored in PBS buffer.
FP assays were carried out using 384 -well plates (#3575, Corning); the polarization signal was measured using a SPARK Multi-Mode Microplate Reader (Tecan). […]

Each structure is given as a SMILES string. Read-outs that look alike come from different tables or passages of the source.

T2 sequence (Q9NWT6 whole entry K106A): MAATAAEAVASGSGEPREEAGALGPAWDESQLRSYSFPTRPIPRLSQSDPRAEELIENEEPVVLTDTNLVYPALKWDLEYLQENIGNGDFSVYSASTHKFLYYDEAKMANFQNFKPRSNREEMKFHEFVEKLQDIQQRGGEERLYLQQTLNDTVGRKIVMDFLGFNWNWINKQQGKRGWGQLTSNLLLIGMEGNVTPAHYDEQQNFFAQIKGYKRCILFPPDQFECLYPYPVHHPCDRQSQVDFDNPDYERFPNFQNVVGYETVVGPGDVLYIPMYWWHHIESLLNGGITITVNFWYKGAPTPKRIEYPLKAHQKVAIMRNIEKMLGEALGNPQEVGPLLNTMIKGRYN
T1 sequence (Q9NWT6 whole entry): as the sequence (Q9NWT6 whole entry K106A) above, with A106K counted along it

By Ki is commonly meant the equilibrium dissociation constant of an inhibitor or competing ligand from its target. Consider `O=C(O)CNC(=O)c1ncc(-c2cc(-c3cccc([N+](=O)[O-])c3)no2)cc1O` [Neg-1], for which the Ki was 423 ± 7 nM at FIH^WT (irradiation time 0 min); 408 ± 30 nM at FIH^WT (irradiation time 15 min); 459 ± 32 nM on FIH^WT (irradiation time 30 min); 427 ± 17 nM at FIH^WT (irradiation time 60 min); 396 ± 29 nM at FIH^WT (irradiation time 90 min); 428 ± 15 nM at FIH^WT (irradiation time 120 min). In addition, the Ki at FIH^K106A (irradiation time 0 min) amounted to 271 ± 14 nM; at FIH^K106A (irradiation time 15 min), 275 ± 15 nM; at FIH^K106A (irradiation time 30 min), 268 ± 25 nM; at FIH^K106A (irradiation time 60 min), 266 ± 22 nM; at FIH^K106A (irradiation time 90 min) it was 264 ± 41 nM; at FIH^K106A (irradiation time 120 min) it was 270 ± 3 nM.

Consider `O=C(O)CNC(=O)c1ncc(-c2cc(-c3ccc(CO)cc3)no2)cc1O` [Neg-2], for which the Ki worked out at 742 ± 65 nM on FIH^WT (irradiation time 0 min); 799 ± 69 nM on FIH^WT (irradiation time 15 min); 758 ± 13 nM on FIH^WT (irradiation time 30 min); 744 ± 30 nM at FIH^WT (irradiation time 60 min); 788 ± 36 nM at FIH^WT (irradiation time 90 min); 786 ± 35 nM at FIH^WT (irradiation time 120 min). The inhibition constant (Ki) was found to be 567 ± 37 nM on FIH^K106A (irradiation time 0 min); 548 ± 61 nM at FIH^K106A (irradiation time 15 min); 521 ± 50 nM at FIH^K106A (irradiation time 30 min); 627 ± 17 nM on FIH^K106A (irradiation time 60 min); 565 ± 10 nM at FIH^K106A (irradiation time 90 min); 552 ± 38 nM at FIH^K106A (irradiation time 120 min).
